Reference: ChEMBL document CHEMBL4613209, “Quinolone hybrids and their anti-cancer activities: An overview” (Eur J Med Chem, 2019)

Assays:
[1] = test system: MCF7; assay: Cytotoxicity against human MCF7 cells assessed as reduction in cell viability after 48 hrs by MTT assay; format: functional, cell-based; conditions: MCF7, 48 h
[2] = test system: T47D; assay: Cytotoxicity against human T47D cells assessed as reduction in cell viability after 48 hrs by MTT assay; format: functional, cell-based
[3] = test system: MDA-MB-231; assay: Cytotoxicity against human MDA-MB-231 cells assessed as reduction in cell viability after 48 hrs by MTT assay; format: functional, cell-based; conditions: MDA-MB-231, 48 h
[4] = biological target: RAC-alpha serine/threonine-protein kinase (Homo sapiens, UniProt P31749); assay: Inhibition of PKBalpha (unknown origin)
[5] = biological target: RAC-beta serine/threonine-protein kinase (Homo sapiens, UniProt P31751); assay: Inhibition of PKBbeta (unknown origin)
[6] = biological target: RAC-gamma serine/threonine-protein kinase (Homo sapiens, UniProt Q9Y243); assay: Inhibition of PKBgamma (unknown origin)
[7] = biological target: T1, Inhibitor of nuclear factor kappa-B kinase subunit alpha (Homo sapiens, UniProt O15111); assay: Inhibition of IKKalpha (unknown origin)
T1 sequence (O15111 whole entry): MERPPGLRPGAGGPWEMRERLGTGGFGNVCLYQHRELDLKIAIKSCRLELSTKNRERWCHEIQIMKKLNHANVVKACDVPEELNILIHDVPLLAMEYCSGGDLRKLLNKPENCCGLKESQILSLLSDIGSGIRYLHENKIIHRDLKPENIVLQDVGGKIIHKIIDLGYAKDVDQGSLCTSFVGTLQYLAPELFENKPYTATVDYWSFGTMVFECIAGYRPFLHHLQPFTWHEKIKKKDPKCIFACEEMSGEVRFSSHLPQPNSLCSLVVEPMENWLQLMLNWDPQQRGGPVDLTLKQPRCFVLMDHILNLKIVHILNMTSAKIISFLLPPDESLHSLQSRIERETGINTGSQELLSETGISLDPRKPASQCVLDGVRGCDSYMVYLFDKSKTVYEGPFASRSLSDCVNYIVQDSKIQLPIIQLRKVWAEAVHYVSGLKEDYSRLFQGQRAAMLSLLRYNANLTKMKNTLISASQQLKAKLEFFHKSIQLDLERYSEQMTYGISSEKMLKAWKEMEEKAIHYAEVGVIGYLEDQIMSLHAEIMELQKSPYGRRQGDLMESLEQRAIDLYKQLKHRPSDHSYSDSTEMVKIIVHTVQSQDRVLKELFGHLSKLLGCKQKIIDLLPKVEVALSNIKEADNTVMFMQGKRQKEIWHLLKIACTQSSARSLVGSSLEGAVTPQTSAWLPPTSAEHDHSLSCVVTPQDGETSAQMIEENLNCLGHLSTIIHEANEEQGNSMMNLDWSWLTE

[8] = biological target: T2, Inhibitor of nuclear factor kappa-B kinase subunit beta (Homo sapiens, UniProt O14920); assay: Inhibition of IKKbeta (unknown origin)
T2 sequence (O14920 whole entry): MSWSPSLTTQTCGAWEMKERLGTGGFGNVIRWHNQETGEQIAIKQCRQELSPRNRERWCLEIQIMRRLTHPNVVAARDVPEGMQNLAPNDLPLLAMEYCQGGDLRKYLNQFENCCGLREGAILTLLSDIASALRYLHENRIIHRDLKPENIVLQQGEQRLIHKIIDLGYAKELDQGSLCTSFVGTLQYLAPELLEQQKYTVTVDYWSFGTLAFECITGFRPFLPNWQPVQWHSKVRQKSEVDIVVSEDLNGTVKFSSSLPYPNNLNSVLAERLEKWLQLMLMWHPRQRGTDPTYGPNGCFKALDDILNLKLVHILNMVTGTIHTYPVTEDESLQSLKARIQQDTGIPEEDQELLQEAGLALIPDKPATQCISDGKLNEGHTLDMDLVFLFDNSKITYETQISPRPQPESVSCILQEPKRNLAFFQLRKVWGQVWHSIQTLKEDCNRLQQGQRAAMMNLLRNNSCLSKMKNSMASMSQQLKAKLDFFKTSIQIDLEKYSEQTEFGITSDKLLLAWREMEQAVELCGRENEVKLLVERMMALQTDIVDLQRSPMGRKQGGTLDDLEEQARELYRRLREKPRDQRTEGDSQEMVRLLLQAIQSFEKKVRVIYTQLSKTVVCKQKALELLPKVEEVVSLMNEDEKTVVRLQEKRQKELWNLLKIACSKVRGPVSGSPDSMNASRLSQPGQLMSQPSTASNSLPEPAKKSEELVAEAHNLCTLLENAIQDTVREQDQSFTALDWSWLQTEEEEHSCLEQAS

[9] = test system: MCF7; assay: Cytotoxicity against human MCF7 cells assessed as reduction in cell viability after 72 hrs by MTT assay; format: functional, cell-based; conditions: MCF7, 72 h
[10] = test system: ACHN; assay: Cytotoxicity against human ACHN cells assessed as reduction in cell viability after 72 hrs by MTT assay; format: functional, cell-based
[11] = test system: A 172; assay: Cytotoxicity against human A172 cells assessed as reduction in cell viability after 72 hrs by MTT assay; format: functional, cell-based; conditions: A 172, 72 h
[12] = test system: SK-MEL3; assay: Cytotoxicity against human SK-MEL-3 cells assessed as reduction in cell viability after 72 hrs by MTT assay; format: functional, cell-based; conditions: SK-MEL3, 72 h
[13] = test system: KB; assay: Cytotoxicity against human KB cells assessed as reduction in cell viability after 72 hrs by MTT assay; format: functional, cell-based
[14] = test system: A549; assay: Cytotoxicity against human A549 cells assessed as reduction in cell viability after 72 hrs by MTT assay; format: functional, cell-based; conditions: A549, 72 h
[15] = test system: A2780; assay: Cytotoxicity against human A2780 cells assessed as reduction in cell viability after 72 hrs by MTT assay; format: functional, cell-based; conditions: A2780, 72 h
[16] = test system: MCF7; assay: Cytotoxicity against human MCF7 cells assessed as reduction in cell viability; format: functional, cell-based
[17] = test system: A549; assay: Cytotoxicity against human A549 cells assessed as reduction in cell viability; format: functional, cell-based

RAC-gamma serine/threonine-protein kinase, sequence (Q9Y243 whole entry): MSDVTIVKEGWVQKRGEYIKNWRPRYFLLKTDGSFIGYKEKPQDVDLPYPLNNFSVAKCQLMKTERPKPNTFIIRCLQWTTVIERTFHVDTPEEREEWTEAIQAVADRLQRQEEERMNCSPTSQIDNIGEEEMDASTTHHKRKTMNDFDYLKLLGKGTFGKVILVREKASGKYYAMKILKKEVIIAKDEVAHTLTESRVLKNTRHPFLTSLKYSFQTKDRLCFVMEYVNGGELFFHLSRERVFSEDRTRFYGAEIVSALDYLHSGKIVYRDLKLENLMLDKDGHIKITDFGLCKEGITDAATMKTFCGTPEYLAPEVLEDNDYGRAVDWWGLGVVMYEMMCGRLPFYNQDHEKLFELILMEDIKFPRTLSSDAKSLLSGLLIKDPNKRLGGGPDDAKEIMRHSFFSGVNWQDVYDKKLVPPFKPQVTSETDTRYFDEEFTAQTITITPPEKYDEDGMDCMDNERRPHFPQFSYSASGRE
RAC-beta serine/threonine-protein kinase, sequence (P31751 whole entry): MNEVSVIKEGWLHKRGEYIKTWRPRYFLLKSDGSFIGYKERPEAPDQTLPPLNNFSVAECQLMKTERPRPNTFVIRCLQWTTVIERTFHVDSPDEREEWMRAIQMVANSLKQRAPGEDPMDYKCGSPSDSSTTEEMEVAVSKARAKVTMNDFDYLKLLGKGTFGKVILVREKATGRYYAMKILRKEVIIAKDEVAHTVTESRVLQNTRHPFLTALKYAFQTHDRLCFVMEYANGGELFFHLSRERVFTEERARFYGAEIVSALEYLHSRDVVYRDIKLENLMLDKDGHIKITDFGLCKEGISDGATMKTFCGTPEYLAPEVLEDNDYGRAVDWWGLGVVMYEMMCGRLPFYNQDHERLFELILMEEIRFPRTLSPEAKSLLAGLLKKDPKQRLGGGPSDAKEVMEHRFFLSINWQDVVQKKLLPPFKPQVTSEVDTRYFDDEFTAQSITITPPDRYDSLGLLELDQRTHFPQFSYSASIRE
RAC-alpha serine/threonine-protein kinase, sequence (P31749 whole entry): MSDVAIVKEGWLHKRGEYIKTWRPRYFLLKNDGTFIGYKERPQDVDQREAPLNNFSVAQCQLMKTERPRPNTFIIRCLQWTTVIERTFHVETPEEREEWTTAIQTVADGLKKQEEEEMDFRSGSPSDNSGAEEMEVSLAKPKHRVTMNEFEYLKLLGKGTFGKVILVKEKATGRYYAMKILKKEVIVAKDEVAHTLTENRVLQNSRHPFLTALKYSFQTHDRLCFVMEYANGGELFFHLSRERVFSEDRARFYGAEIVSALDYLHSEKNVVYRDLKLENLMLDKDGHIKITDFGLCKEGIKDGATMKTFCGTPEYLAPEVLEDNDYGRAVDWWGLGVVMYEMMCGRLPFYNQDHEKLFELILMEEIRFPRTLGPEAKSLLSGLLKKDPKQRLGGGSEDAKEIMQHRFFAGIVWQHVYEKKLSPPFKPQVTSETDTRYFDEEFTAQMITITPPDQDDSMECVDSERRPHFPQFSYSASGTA

Row | SMILES | IC50 [1] [µM] | IC50 [2] [µM] | IC50 [3] [µM] | IC50 [9] [µM] | IC50 [10] [µM] | IC50 [11] [µM] | IC50 [12] [µM] | IC50 [13] [µM] | IC50 [14] [µM] | IC50 [15] [µM] | other results
1 | CCc1ccc2c(c1)c(=O)c1ccccc1n2Cc1cn(Cc2cc(OC)c(OC)c(OC)c2)nn1 | > 100 | > 100 | > 100 |  |  |  |  |  |  |  | 
2 | O=C(/C=C/c1nc2ccccc2[nH]1)c1c(-c2ccccc2)c2cc(Br)ccc2[nH]c1=O |  |  |  |  |  |  |  |  |  |  | IC50 [4]: 1.64 to 44.5 µM; IC50 [5]: 1.64 to 44.5 µM; IC50 [6]: 1.64 to 44.5 µM; IC50 [7]: 1.64 to 44.5 µM; IC50 [8]: 1.64 to 44.5 µM
3 | Cc1ccc2[nH]c(/C=C/C(=O)c3c(-c4ccccc4)c4cc(Cl)ccc4[nH]c3=O)nc2c1 |  |  |  |  |  |  |  |  |  |  | IC50 [4]: 1.64 to 44.5 µM; IC50 [5]: 1.64 to 44.5 µM; IC50 [6]: 1.64 to 44.5 µM; IC50 [7]: 1.64 to 44.5 µM; IC50 [8]: 1.64 to 44.5 µM
4 | CCn1cc(C(=O)O)c(=O)c2cc(F)c(N3CCN(C/C(=N/O)c4ccco4)CC3)cc21 |  |  |  | > 100 | > 100 | > 100 | > 100 | > 100 | > 100 | > 100 | 
5 | O=C(/C=C/c1nc2ccccc2[nH]1)c1c(O)nc2ccc(Cl)cc2c1-c1ccccc1 |  |  |  |  |  |  |  |  |  |  | IC50 [4]: 1.64 to 44.5 µM; IC50 [5]: 1.64 to 44.5 µM; IC50 [6]: 1.64 to 44.5 µM; IC50 [7]: 1.64 to 44.5 µM; IC50 [8]: 1.64 to 44.5 µM
6 | O=C(/C=C(O)/C=C/c1cc2ccccc2[nH]c1=O)/C=C/c1cc2ccccc2[nH]c1=O |  |  |  |  |  |  |  |  |  |  | IC50 [16]: 69.1 µM; IC50 [17]: 31.5 µM
7 | CCn1cc(C(=O)O)c(=O)c2cc(F)c(N3CCN(C/C(=N/OCc4ccc(Cl)cc4)c4ccco4)CC3)cc21 |  |  |  | ≤ 10 | ≤ 10 | ≤ 10 | ≤ 10 | ≤ 10 | ≤ 10 | ≤ 10 | 
8 | COc1cc(Cn2cc(Cn3c4ccccc4c(=O)c4cccc(F)c43)nn2)cc(OC)c1OC | > 100 | > 100 | > 100 |  |  |  |  |  |  |  | 
9 | COc1cc(Cn2cc(Cn3c4ccccc4c(=O)c4cccc(OC)c43)nn2)cc(OC)c1OC | > 100 | > 100 | > 100 |  |  |  |  |  |  |  | 
10 | O=C(O)c1cn(C2CC2)c2cc(N3CCN(C/C(=N/OCc4ccc(Cl)cc4)c4ccco4)CC3)c(F)cc2c1=O |  |  |  | ≤ 10 | ≤ 10 | ≤ 10 | ≤ 10 | ≤ 10 | ≤ 10 | ≤ 10 | 
11 | COc1cc(Cn2cc(Cn3c4ccccc4c(=O)c4cc(Br)ccc43)nn2)cc(OC)c1OC | > 100 | > 100 | > 100 |  |  |  |  |  |  |  | 
12 | COc1cc(Cn2cc(Cn3c4ccccc4c(=O)c4cc(Cl)ccc43)nn2)cc(OC)c1OC | > 100 | > 100 | > 100 |  |  |  |  |  |  |  | 
13 | O=C(/C=C/c1nc2ccccc2[nH]1)c1c(-c2ccccc2)c2ccccc2[nH]c1=O |  |  |  |  |  |  |  |  |  |  | IC50 [4]: 1.64 to 44.5 µM; IC50 [5]: 1.64 to 44.5 µM; IC50 [6]: 1.64 to 44.5 µM; IC50 [7]: 1.64 to 44.5 µM; IC50 [8]: 1.64 to 44.5 µM
14 | N=c1c(-c2nn3c(-c4cn(C5CC5)c5cc(N6CCNCC6)c(F)cc5c4=O)nnc3s2)cn(C2CC2)c2cc(N3CCNCC3)c(F)cc12 |  |  |  | ≤ 10 | ≤ 10 | ≤ 10 | ≤ 10 | ≤ 10 | ≤ 10 | ≤ 10 | 
15 | O=C(O)c1cn(C2CC2)c2cc(N3CCN(C/C(=N/OCc4ccc(Cl)cc4)c4cccs4)CC3)c(F)cc2c1=O |  |  |  | ≤ 10 | ≤ 10 | ≤ 10 | ≤ 10 | ≤ 10 | ≤ 10 | ≤ 10 | 
